Reference: PMC11399263 (Nature Communications, 2024)

How the values were obtained:
MefHα/DmgHβ = biological target: T1, MefHα/DmgHβ (Aminobacter niigataensis, UniProt A0AAX7FLU4); assay: guanylurea production by LC-MS; type: biochemical; conditions: 2 mM substrate, Tris-HCl pH 8, 30 °C
T1 construct: gene N7E70_023840; subunit-swapped heteromer of full-length subunits from two strains, co-expressed in E. coli; with Dimethylguanidine hydrolase subunit beta
T1 sequence (A0AAX7FLU4 20-376): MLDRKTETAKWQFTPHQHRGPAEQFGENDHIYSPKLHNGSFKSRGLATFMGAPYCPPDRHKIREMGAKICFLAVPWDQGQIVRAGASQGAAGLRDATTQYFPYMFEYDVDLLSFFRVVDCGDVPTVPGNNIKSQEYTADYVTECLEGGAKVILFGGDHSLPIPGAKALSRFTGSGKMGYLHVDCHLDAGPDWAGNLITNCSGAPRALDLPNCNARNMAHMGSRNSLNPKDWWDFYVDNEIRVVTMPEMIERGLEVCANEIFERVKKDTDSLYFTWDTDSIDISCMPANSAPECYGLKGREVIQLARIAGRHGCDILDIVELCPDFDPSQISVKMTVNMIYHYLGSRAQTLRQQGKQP
T1 sequence (A0ABR6L539 1-348 partner): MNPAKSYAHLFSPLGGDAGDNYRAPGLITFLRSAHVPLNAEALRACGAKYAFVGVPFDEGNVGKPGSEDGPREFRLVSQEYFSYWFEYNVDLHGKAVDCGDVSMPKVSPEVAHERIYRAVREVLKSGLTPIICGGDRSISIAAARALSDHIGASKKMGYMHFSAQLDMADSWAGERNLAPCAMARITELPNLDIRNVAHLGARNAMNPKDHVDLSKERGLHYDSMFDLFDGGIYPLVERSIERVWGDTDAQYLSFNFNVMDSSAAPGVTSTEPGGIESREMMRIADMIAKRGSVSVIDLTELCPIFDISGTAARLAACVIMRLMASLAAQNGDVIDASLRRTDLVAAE

[1] = biological target: 6x His-tagged metformin hydrolase α subunit of Aminobacter niigataensis MD1 (Aminobacter niigataensis MD1); assay: crystal structure; 6x His-AnMefH complex, 13.3 mg/ml; crystals from 20% PEG 3350, 100 mM Bis Tris Propane-HCl pH 6.5, 200 mM NaF, 18 °C; soaked with urea

Compound | guanylurea production by LC-MS (MefHα/DmgHβ) | stoichiometry N (MefHβ per MefHα) [1]
CN(C)C(=N)NC(=N)N [metformin] | MefHα/DmgHβ preferentially hydrolyzed metformin | 
metformin hydrolase β subunit of Aminobacter niigataensis MD1, untagged (natural protein) |  | 2
